Laboratory results as given in patent US8569267B2, “Tetracyclic tetrahydrofuran derivatives containing cyclic amine side chain” (Janssen Pharmaceutica, NV, priority 2005, dated 2013).

Legend:
[1] = target: T1, NET (norepinephrine transporter) (Rattus norvegicus, UniProt Q63380); assay: In vitro determination of NET reuptake inhibition ([3H]Nixosetine binding, rat brain cortex); conditions: rat brain cortex; for IC50: read-out: NET pIC50 (converted)
T1 construct: Cortex from rat brain was collected and homogenised; from tissue; host or cells: rat brain cortex
How it was run: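 Rat cortex homogenised in Tris 50 mM, NaCl 120 mM, KCl 5 mM, pH 7.4 was used for competition binding against [3H]nisoxetine. Bound radioligand was collected by filtration on GF/B filters and counted by scintillation. Percentage specific binding and competition curves were derived.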

[2] = target: T2, human cloned 5-HT2C receptor, expressed in CHO cells (Homo sapiens, UniProt P28335); assay: In vitro binding affinity for 5-HT2C receptor ([3H]mesulergine radioligand binding); conditions: human cloned 5-HT2C receptor; for IC50: read-out: 5-HT2C pIC50 (converted)
T2 construct: expressed in transfected cells; host or cells: CHO cells
T2 sequence (P28335 33-458): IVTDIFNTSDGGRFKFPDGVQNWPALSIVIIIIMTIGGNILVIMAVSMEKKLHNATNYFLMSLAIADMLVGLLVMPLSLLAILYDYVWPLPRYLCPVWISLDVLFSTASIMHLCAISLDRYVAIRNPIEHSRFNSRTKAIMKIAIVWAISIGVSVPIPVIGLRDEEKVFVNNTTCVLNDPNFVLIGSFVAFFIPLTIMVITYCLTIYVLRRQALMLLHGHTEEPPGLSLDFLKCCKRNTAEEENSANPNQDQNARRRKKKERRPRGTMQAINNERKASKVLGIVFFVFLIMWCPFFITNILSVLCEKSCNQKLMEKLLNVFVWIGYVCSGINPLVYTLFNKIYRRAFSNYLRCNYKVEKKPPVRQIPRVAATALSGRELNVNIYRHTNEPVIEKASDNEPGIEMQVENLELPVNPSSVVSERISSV
How it was run: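 Competition radioligand binding: varying test-compound concentrations incubated with receptor preparation and radioligand to binding equilibrium. Bound radioactivity separated from free and counted; affinity inferred from concentration-dependent inhibition of radioligand binding.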

[3] = target: T3, human cloned 5-HT2A receptor, expressed in L929 cells (Homo sapiens, UniProt P28223); assay: In vitro binding affinity for 5-HT2A receptor ([125I]R91150 radioligand binding); conditions: human cloned 5-HT2A receptor in L929 cells, [125I]R91150; for IC50: read-out: 5-HT2A pIC50 (converted)
T3 construct: expressed in transfected cells; host or cells: L929 cells
Protocol: In Vitro Binding Affinity for 5-HT2A and 5-HT2C Receptors
The interaction of the compounds of Formula (I) with 5-HT2A and 5-HT2C receptors was assessed in in vitro radioligand binding experiments. […] During the incubation, the radioligands bind to the receptor. When equilibrium of binding is reached, the receptor bound radioactivity is separated from the non-bound radioactivity, and the receptor bound activity is counted. The interaction of the test compounds with the receptors is assessed in competition binding experiments. Various concentrations of the test compound are added to the incubation mixture containing the tissue preparation and the radioligand. Binding of the radioligand will be inhibited by the test compound in proportion to its binding affinity and its concentration. The affinities of the compounds for the 5-HT2 receptors were measured by means of radioligand binding studies conducted with: (a) human cloned 5-HT2A receptor, expressed in L929 cells using [^125I]R91150 as radioligand and (b) human cloned 5-HT2C receptor, expressed in CHO cells using [^3H]mesulergine as radioligand.

[4] = target: T4, human Dopamine D2L receptor (Homo sapiens, UniProt P14416); assay: In vitro binding affinity for human D2L receptor ([3H]Spiperone binding); conditions: human D2L receptor-transfected CHO cell membranes; for IC50: read-out: D2L pIC50 (converted)
T4 construct: expressed in transfected cells; host or cells: CHO cells
How it was run: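 Membranes from CHO cells transfected with the receptor were incubated with [3H]Spiperone (diluted to 2 nmol/L before addition) and compound for 30 min at 37° C. Buffer was Tris-HCl, pH 7.7, with NaCl, CaCl2, MgCl2 and KCl, and non-specific binding was defined with 10^−6 mol/l Butaclamol. Bound radioactivity was collected by filtration, counted by scintillation, and competition curves calculated as percent specific binding.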

T4 sequence (P14416 whole entry): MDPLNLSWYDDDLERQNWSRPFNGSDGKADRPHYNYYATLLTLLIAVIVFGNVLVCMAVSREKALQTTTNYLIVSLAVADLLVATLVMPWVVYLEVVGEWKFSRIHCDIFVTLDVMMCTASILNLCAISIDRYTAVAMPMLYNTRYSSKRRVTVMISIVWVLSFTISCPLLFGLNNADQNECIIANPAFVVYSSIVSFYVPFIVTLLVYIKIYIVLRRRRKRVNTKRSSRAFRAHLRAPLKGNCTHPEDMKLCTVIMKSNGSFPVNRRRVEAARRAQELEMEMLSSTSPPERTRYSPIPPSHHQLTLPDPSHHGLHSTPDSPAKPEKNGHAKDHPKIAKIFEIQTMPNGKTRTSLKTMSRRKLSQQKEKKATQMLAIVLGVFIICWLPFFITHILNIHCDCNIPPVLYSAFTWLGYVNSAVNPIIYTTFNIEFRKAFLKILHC
T3 sequence (P28223 whole entry): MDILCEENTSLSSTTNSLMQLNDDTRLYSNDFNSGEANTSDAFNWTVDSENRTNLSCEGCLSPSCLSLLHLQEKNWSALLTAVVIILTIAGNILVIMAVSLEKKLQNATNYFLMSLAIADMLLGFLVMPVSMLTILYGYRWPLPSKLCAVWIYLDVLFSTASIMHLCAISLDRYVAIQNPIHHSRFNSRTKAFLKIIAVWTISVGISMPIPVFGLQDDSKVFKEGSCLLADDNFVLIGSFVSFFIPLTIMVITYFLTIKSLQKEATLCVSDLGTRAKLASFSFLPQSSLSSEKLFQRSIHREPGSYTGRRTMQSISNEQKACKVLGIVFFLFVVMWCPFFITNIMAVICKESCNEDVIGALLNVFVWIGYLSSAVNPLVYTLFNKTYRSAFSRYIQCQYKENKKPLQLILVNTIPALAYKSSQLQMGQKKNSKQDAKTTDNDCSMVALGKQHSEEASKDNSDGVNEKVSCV
T1 sequence (Q63380 1-617): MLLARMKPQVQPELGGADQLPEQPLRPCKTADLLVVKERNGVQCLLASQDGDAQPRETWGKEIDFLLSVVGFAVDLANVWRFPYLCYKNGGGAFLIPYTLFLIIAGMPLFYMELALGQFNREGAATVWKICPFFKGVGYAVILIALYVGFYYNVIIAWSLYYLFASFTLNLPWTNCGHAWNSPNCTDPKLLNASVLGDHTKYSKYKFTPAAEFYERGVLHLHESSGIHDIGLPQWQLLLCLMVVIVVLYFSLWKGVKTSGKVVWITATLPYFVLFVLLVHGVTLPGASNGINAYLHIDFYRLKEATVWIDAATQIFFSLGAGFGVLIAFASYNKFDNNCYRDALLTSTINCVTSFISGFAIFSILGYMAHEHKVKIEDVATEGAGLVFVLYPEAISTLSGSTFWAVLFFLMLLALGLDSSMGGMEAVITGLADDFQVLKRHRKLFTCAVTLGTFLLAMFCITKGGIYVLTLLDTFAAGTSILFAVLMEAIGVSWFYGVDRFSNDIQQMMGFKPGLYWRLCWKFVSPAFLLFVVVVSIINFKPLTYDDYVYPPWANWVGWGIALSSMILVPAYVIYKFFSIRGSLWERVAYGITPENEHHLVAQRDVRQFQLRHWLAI

| SMILES | IC50 [1] [nM] | IC50 [2] [nM] | IC50 [3] [nM] | IC50 [4] [nM] | NET pIC50 [1] | 5-HT2C pIC50 [2] | 5-HT2A pIC50 [3] | D2L pIC50 [4] |
| --- | --- | --- | --- | --- | --- | --- | --- | --- |
| O=[N+]([O-])c1ccc(-c2ccc(CN3CCN(CC4CC5c6ccccc6Cc6ccc(F)cc6C5O4)CC3)o2)cc1 (stereo not drawn) [Compound 63] | 562 | 50.1 | 27.5 | 74.1 |  |  |  |  |
| COc1ccc(OC2CCN(CC3CC4c5ccccc5Cc5ccc(F)cc5C4O3)C2)cc1 (mixture of isomers) [Compound 33] | 4900 | 2 | 6.17 | 7.94 |  |  |  |  |
| CC(C)(C)NC(=O)C1CCN(CC2CC3c4ccccc4Cc4ccc(F)cc4C3O2)CC1 (stereo not drawn) [Compound 173] | 6460 | 5.75 | 0.724 | 13.2 |  |  |  |  |
| O=C(NC1CCCCCC1)C1CCN(CC2CC3c4ccccc4Cc4ccc(F)cc4C3O2)CC1 (stereo not drawn) [Compound 193] | 5250 | 2.63 | 1.41 | 15.5 |  |  |  |  |
| N#CCCNC(=O)C1CCN(CC2CC3c4ccccc4Cc4ccc(F)cc4C3O2)CC1 (stereo not drawn) [Compound 174] | > 10000 | 2.19 | 1.62 | 15.1 |  |  |  |  |
| O=C(NC1CCCCC1)N1CCN(CC2CC3c4ccccc4Cc4ccc(F)cc4C3O2)CC1 (stereo not drawn) [Compound 95] | 9550 | 7.59 | 1.74 | 69.2 |  |  |  |  |
| O=C(C1CCN(CC2CC3c4ccccc4Cc4ccc(F)cc4C3O2)CC1)N1CC=CC1 (stereo not drawn) [Compound 201] | > 10000 | 10.5 | 0.617 | 41.7 |  |  |  |  |
| Fc1ccc2c(c1)C1OC(CN3CCN(Cc4cnc(-c5ccccc5)[nH]4)CC3)CC1c1ccccc1C2 (stereo not drawn) [Compound 67] | 4900 | 4.27 | 3.16 | 8.51 |  |  |  |  |
| O=C(c1cccs1)N1CCN(CC2CC3c4ccccc4Cc4ccc(F)cc4C3O2)CC1 (stereo not drawn) [Compound 81] | > 10000 | 5.01 | 0.724 | 35.5 |  |  |  |  |
| COc1cc(OC)c(CNC(=O)C2CCN(CC3CC4c5ccccc5Cc5ccc(F)cc5C4O3)CC2)c(OC)c1 (stereo not drawn) [Compound 186] | 3550 | 2.34 | 2.4 | 7.08 |  |  |  |  |
| OCC1CN(CC2CC3c4ccccc4Cc4ccc(F)cc4C3O2)CCO1 (mixture of isomers) [Compound 128, [2R-(2aα, 3aα, 12bβ)]-(3′RS)-[4-(11-fluoro-3,3a,8,12b-tetrahydro-2H-1-oxa-dibenzo[e,h]azulen-2-ylmethyl)-morpholin-2-yl]-methanol.oxalate (1:1)] | 2630 | 11.7 | 4.37 | 18.6 |  |  |  |  |
| O=C(O)C(=O)O.OC1CCN(CC2CC3c4ccccc4Oc4ccc(Cl)cc4C3O2)CC1 (stereo not drawn) [Compound 284] |  |  |  |  | <5 | 7.38 | 7.98 | 7.14 |
| CSCCNC(=O)N1CCN(CC2CC3c4ccccc4Cc4ccc(F)cc4C3O2)CC1 (stereo not drawn) [Compound 87] | 5890 | 3.09 | 1.26 | 25.7 |  |  |  |  |
| Fc1ccc2c(c1)C1OC(CN3CCN(Cc4cnc[nH]4)CC3)CC1c1ccccc1C2 (stereo not drawn) [Compound 66] | 4370 | 37.2 | 7.41 | 13.8 |  |  |  |  |
| COc1cc2c(cc1OC)CN(C[C@H]1C[C@@H]3c4ccccc4Cc4ccc(F)cc4[C@@H]3O1)CC2 [Compound 276] | > 10000 | 1.15 | 1.02 | 17 |  |  |  |  |
| COCC(=O)N1CCN(CC2CC3c4ccccc4Cc4ccc(F)cc4C3O2)CC1 (stereo not drawn) [Compound 77] | 3630 | 13.2 | 3.09 | 33.9 |  |  |  |  |
| Fc1ccc2c(c1)C1OC(CN3CCN(C(=S)NC4CCCCC4)CC3)CC1c1ccccc1C2 (stereo not drawn) [Compound 114] | 1100 | 20.9 | 6.17 | 45.7 |  |  |  |  |

| SMILES | IC50 [1] [nM] | IC50 [2] [nM] | IC50 [3] [nM] | IC50 [4] [nM] | NET pIC50 [1] | 5-HT2C pIC50 [2] | 5-HT2A pIC50 [3] | D2L pIC50 [4] |
| --- | --- | --- | --- | --- | --- | --- | --- | --- |
| O=C1CCN(C[C@H]2C[C@@H]3c4ccccc4Cc4ccc(F)cc4[C@@H]3O2)C1 [Compound 7, [2R-(2α, 3aα, 12bβ)]1-(11-fluoro-3,3a,8,12b-tetrahydro-2H-1-oxa-dibenzo[e,h]-azulen-2-ylmethyl)-pyrrolidin-3-one] | 1620 | 2.95 | < 10 | 141 |  |  |  |  |
| Fc1ccc2c(c1)[C@@H]1O[C@@H](CN3CC=CC3)C[C@@H]1c1ccccc1C2.O=C(O)C(=O)O [Compound 266] |  |  |  |  | 6.61 | 8.42 | 8.09 | 7.42 |
| CN1c2ccccc2[C@H]2C[C@@H](CN3CCC(O)C3)O[C@@H]2c2ccccc21 (relative stereo) [Compound 264] | 4170 | 19.1 | 166 | 2240 |  |  |  |  |
| O=C(O)C(=O)O.OCC1CCCN(C[C@H]2C[C@@H]3c4ccccc4Cc4ccc(F)cc4[C@@H]3O2)C1 (single isomer, unassigned) [Compound 148] |  |  |  |  | <5 | 8.71 | 8.87 | 8.35 |
| N#Cc1ccc2c(c1)[C@H]1C[C@@H](CN3CCC(O)C3)O[C@H]1c1cc(F)ccc1S2 (relative stereo) [Compound 260] | 912 | 3.09 | 2.24 | 24.5 |  |  |  |  |
| CCCCCC(=Cc1ccccc1)CN1CCN(CC2CC3c4ccccc4Cc4ccc(F)cc4C3O2)CC1 (stereo not drawn) [Compound 50] | 2140 | 105 | 34.7 | 70.8 |  |  |  |  |
| O=C(OC1CCN(CC2CC3c4ccccc4Cc4ccc(F)cc4C3O2)C1)c1ccc(F)cc1F (mixture of isomers) [Compound 17] | 1740 | 4.68 | 5.75 | 6.03 |  |  |  |  |
| Fc1ccc2c(c1)[C@@H]1O[C@@H](CN3CCN(c4cccc(C(F)(F)F)n4)CC3)C[C@@H]1c1ccccc1C2 [Compound 119] | 4070 | 51.3 | 10.2 | 158 |  |  |  |  |
| OCC1CCCCN1CC1CC2c3ccccc3Cc3ccc(F)cc3C2O1 (mixture of isomers) [Compound 146] | > 10000 | 11.5 | 16.6 | 81.3 |  |  |  |  |
| O=C(CCN1CCN(CC2CC3c4ccccc4Cc4ccc(F)cc4C3O2)CC1)c1ccc(F)cc1 (stereo not drawn) [Compound 52] | 490 | 2.88 | 3.39 | 1.2 |  |  |  |  |
| C=CS(=O)(=O)N1CCN(CC2CC3c4ccccc4Cc4ccc(F)cc4C3O2)CC1 (stereo not drawn) [Compound 104] | > 10000 | 28.2 | 8.32 | 30.9 |  |  |  |  |
| Fc1ccc(OCC2CCN(CC3CC4c5ccccc5Cc5ccc(F)cc5C4O3)C2)cc1 (stereo not drawn) [Compound 26] | > 10000 | 5.62 | 5.13 | 3.63 |  |  |  |  |
| O=C(Nc1ccc(F)cc1)OCC1CCN(CC2CC3c4ccccc4Cc4ccc(F)cc4C3O2)C1 (stereo not drawn) [Compound 23] | 3800 | 3.8 | 2.95 | 5.62 |  |  |  |  |
| Fc1ccc2c(c1)C1OC(CN3CCN(C(=S)Nc4ccccc4)CC3)CC1c1ccccc1C2 (stereo not drawn) [Compound 115] | 490 | 22.4 | 7.41 | 112 |  |  |  |  |
| Fc1ccc2c(c1)C1OC(CN3CCN(c4cnccn4)CC3)CC1c1ccccc1C2 (stereo not drawn) [Compound 123] | 2820 | 7.24 | 2.75 | 40.7 |  |  |  |  |
| O=[N+]([O-])c1ccc(CN2CCN(CC3CC4c5ccccc5Cc5ccc(F)cc5C4O3)CC2)cc1 (stereo not drawn) [Compound 73] | 3630 | 46.8 | 20.4 | 18.6 |  |  |  |  |
